Data: PMC5773577, “Novel Miniature Membrane Active Lipopeptidomimetics against Planktonic and Biofilm Embedded Methicillin-Resistant Staphylococcus aureus” (Scientific Reports, 2018)
In brackets after ≈: the same amount, converted by molar mass.

Tests used:
Format in all cases: cell-based, Staphylococcus aureus
[1] = test system: S. aureus (ATCC 25923); experiment: microbe, parasite or virus in culture; settings: Staphylococcus aureus, ATCC25923, MHB, 2–5 × 10^5 CFU/mL, 16–18 h, 37 °C, OD600, read-out: Minimum inhibitory concentration, MIC
Experimental: (§1) The antibacterial activity was evaluated as MIC using slight modifications to a serial broth micro dilution method as reported previously[66],[67]. Briefly, to each treatment well of the 96-well plate (Corning Incorporated, USA) 10 μL of peptidomimetic/antibiotic was added and subsequently diluted serial 2-fold in 0.2% BSA (in 0.01% acetic acid). Then to each well of the first 11 columns 100 μL of mid-log phase bacterial suspension in MHB medium was added to get 2–5 × 10^5 CFU/mL. Cultures without test peptidomimetics/antibiotics were used as growth control. Uninoculated MHB medium was used as negative control. The microtitre plates were incubated overnight with agitation (180 rpm) at 37 °C. After 16–18 h incubation, absorbance was read at 600 nm using an ELISA plate reader (Molecular Devices, Sunnyvale, CA, USA). The experiments were carried out in duplicate on at least three different days.

[2] = test system: S. aureus (ATCC 29213); experiment: microbe, parasite or virus in culture; settings: Staphylococcus aureus, ATCC29213, MHB, 2–5 × 10^5 CFU/mL, 16–18 h, 37 °C, OD600, duplicate, at least three days, read-out: Minimum inhibitory concentration, MIC
Experimental: as §1

[3] = test system: MRSA (ATCC 43300); experiment: microbe, parasite or virus in culture; settings: Staphylococcus aureus, MHB, 2–5 × 10^5 CFU/mL, 16–18 h, 37 °C, OD600, read-out: Minimum inhibitory concentration, MIC
Experimental: as §1

[4] = test system: MRSA (ATCC 33591); experiment: microbe, parasite or virus in culture; settings: Staphylococcus aureus, MHB, 2–5 × 10^5 CFU/mL, 16–18 h, 37 °C, OD600, read-out: Minimum inhibitory concentration, MIC
Experimental: as §1

[5] = test system: S. aureus (ISP479C); experiment: microbe, parasite or virus in culture; settings: Staphylococcus aureus, MHB, 2–5 × 10^5 CFU/mL, 16–18 h, 37 °C, OD600, read-out: Minimum inhibitory concentration, MIC
Experimental: as §1

[6] = test system: MRSA ATCC 33591 biofilm; experiment: Biofilm formation inhibition, crystal violet (CV) assay; settings: 24 h biofilm formation inhibition, 2.5 μg/mL
Experimental: (§2) For the experiment, a protocol as described previously was used with slight modifications. Briefly, desired concentrations of the test agents in PBS were added to the wells of a 96-well plate (100 μL). Thereafter, overnight grown stationary phase MRSA ATCC 33591 culture (~4 × 10^5 CFU/mL) in TSB medium (supplemented with 0.25% glucose and 0.5% NaCl) was added to the 96-well plates (100 μL). The plates were incubated at 37 °C without shaking for 24 h. After 24 h, the used medium was discarded and the biofilms formed were washed with PBS once. Subsequently, CV and AB assays were performed to quantify biomass and viability respectively, as described below:
For CV assay after washing the biofilms, the plates were heat fixed at 60 °C for 1 h and 0.1% aqueous CV solution (200 μL) was added to the wells. After 15 min incubation, excess CV was washed off and biomass adhered CV was dissolved in 33% glacial acetic acid (200 μL). The plates were kept at room temperature for 15 min. […] To quantify CV associated biomass, the absorbance was read at 570 nm.
The experiments were repeated on two different days and on each day 6 wells were used for a single treatment. […] Corresponding to CV and AB assay the viability of cells upon treatment was also evaluated. […] The agar plates were incubated at 37 °C for 16–24 h and CFUs were counted. […]

[7] = test system: MRSA ATCC 33591; experiment: Membrane permeabilization assay, calcein-AM dye release, flow cytometry; settings: PBS, 37 °C, mean ± S.D., two days
Experimental: To assess the effect of designed peptidomimetics on membrane integrity of MRSA ATCC 33591 strain a calcein-AM dye release experiment was performed using the protocol described previously with slight modifications. Briefly, exponential phase MRSA ATCC 33591 culture was prepared in MHB medium as mentioned earlier and adjusted to OD600 = 1 (~10^9 CFU/mL) in PBS (10 mM sodium phosphate, 150 mM NaCl, pH 7.4). Thereafter, the cells were incubated at 37 °C with calcein-AM (2 μg/mL) in 10% MHB medium for 2 h. The calcein-loaded cells were washed once and re-suspended in PBS to OD600 = 0.5 (~10^8 CFU/mL). […] Subsequently, calcein fluorescence was measured via flow cytometry (Becton Dickinson (BD) FACS verse, San Jose, CA) with excitation and emission wavelengths of 488 nm and 530 ± 30 nm, respectively. For each sample, 10,000 cells were acquired. As a positive control, melittin (10 μM) was assayed under identical conditions. The experiment was repeated on two different days and mean ± S.D. is presented here. Corresponding to leakage a viability assay at 4 × MIC of respective test agents was also performed by incubating samples for 2 h at 37 °C and plating the diluted aliquots on BHI agar plates.

[8] = test system: MRSA ATCC 33591 biofilm; experiment: Biofilm formation inhibition, alamar blue (AB) assay; settings: 24 h biofilm formation inhibition, 2.5 μg/mL
Experimental: as §2
For AB assay, after washing the treated biofilms, a solution of 10% AB reagent in TSB medium (200 μL) was added to the wells of the plates. The plates were sonicated briefly in a bath sonicator (5 min) and kept at room temperature for 30 min in dark. After 30 min, fluorescence was measured by exciting the samples at 550 nm and collecting emission at 590 nm.
The experiments were repeated on two different days and on each day 6 wells were used for a single treatment. Mean ± S.E. for both CV assay and AB assay is presented here. Corresponding to CV and AB assay the viability of cells upon treatment was also evaluated. […] The agar plates were incubated at 37 °C for 16–24 h and CFUs were counted. […]

[9] = test system: MRSA ATCC 33591; experiment: Cell viability corresponding to membrane depolarization experiment; settings: dye-loaded cells in HEPES-glucose buffer, 4 × MIC, 2 min incubation
Experimental: Briefly, exponential phase cells grown in MHB were harvested by centrifugation, washed and re-suspended in respiration buffer (5 mM HEPES, 20 mM glucose, pH 7.2) to 2.5 × 10^6 CFU/mL. […] The dye-loaded cells (800 μL) were then treated with peptidomimetics at respective 1× and 4× MIC concentrations (2–20 μL) and consequent fluorescence increase after 2 min of addition was measured in a Shimadzu RF-5301 PC spectrofluorimeter. As controls IL, melittin and VAN were also assayed under identical conditions. […] The viability of dye-loaded cells corresponding to depolarization experiment at 4 × MIC concentration was also measured by plating the diluted aliquots onto BHI agar plates.
Cell viability corresponding to membrane depolarization experiment.
dye-loaded cells suspended in HEPES-glucose buffer (5 mM, 20 mM glucose, pH 7.2)
were incubated with different test agents for 2 min and subsequently diluted
appropriately and plated on BHI agar plates. The plates were incubated at 37 °C for 16-
18 h and colonies were counted. The experiment was repeated on two different days

SMILES: CN[C@H](CC(C)C)C(=O)N[C@H]1C(=O)N[C@@H](CC(N)=O)C(=O)N[C@H]2C(=O)N[C@H]3C(=O)N[C@H](C(=O)N[C@H](C(=O)O)c4cc(O)cc(O)c4-c4cc3ccc4O)[C@H](O)c3ccc(c(Cl)c3)Oc3cc2cc(c3O[C@@H]2O[C@H](CO)[C@@H](O)[C@H](O)[C@H]2O[C@H]2C[C@](C)(N)[C@H](O)[C@H](C)O2)Oc2ccc(cc2Cl)[C@H]1O [VAN, vancomycin]
- MIC [1]: 1.4 µg/mL (≈ 0.966 µM)
- MIC [2]: 0.7 µg/mL (≈ 0.483 µM)
- MIC [3]: 0.7 µg/mL (≈ 0.483 µM)
- MIC [4]: 1.4 µg/mL (≈ 0.966 µM)
- MIC [5]: 0.3 µg/mL (≈ 0.207 µM)
- reduction of biomass (CV assay) [6]: > 95%
- % calcein leakage ([7]; at 4 × MIC, 2 min incubation): did not cause any leakage
- % calcein leakage ([7]; at 4 × MIC, 2 h incubation): 11.9 ± 9.2%
- % calcein leakage ([7]; at MIC, 2 min incubation): 1.6 ± 2.3%
- % viable cells compared to untreated control (AB assay) [8]: < 1%
- log reduction in viability relative to untreated control [9]: 0.6 log
